# Measured values reported in US20240261414A1, “FATTY ACID AMIDE HYDROLASE (FAAH) CLEAVABLE PRODRUGS OF BRAIN TARGETING ACTIVES AND COMBINATION WITH PERIPHERALLY RESTRICTED FAAH INHIBITORS” (Autobahn Therapeutics, Inc., priority 2021, published 2024).
# Molecular target: T1, recombinant human FAAH (rhFAAH) (Homo sapiens, UniProt O00519)
# T1 construct: purchased Cayman Chemical (Ann Arbor, MI, USA)
# T1 sequence (O00519 1-579): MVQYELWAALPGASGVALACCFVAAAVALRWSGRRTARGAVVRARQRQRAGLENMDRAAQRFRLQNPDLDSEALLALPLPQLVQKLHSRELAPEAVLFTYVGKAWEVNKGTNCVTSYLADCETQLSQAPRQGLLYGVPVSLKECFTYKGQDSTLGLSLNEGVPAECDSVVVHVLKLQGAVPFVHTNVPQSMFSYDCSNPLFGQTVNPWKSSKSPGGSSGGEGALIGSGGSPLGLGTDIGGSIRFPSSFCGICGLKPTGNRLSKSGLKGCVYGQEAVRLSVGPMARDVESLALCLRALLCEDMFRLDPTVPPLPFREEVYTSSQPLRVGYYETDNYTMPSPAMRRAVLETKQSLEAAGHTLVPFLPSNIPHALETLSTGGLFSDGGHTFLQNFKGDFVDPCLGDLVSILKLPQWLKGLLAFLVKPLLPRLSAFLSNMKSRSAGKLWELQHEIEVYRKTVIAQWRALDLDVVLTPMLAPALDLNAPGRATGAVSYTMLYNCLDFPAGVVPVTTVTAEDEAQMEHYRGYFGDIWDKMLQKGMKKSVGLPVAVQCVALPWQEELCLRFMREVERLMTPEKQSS
# Assay: FAAH substrate evaluation (acid metabolite formation)
# Assay type: biochemical
# Settings: 0.5 ng/L rhFAAH, 1 μM test compound, Tris-EDTA buffer pH 8.0, room temperature, 0-60 minutes
# Experimental: Purified recombinant human FAAH (rhFAAH) was purchased from Cayman Chemical (Ann Arbor, MI, USA). The total volume for each incubation was 400 μL containing a final 0.5 ng/L rhFAAH, 1 μM test compound, 1.25% ethanol or 1 μM PF-3845 (FAAH inhibitor), and 0.1% bovine serum albumin in Tris-EDTA buffer at pH 8.0). The positive control was LL-341001. The incubation was conducted at the room temperature. At 0, 5, 15, 30 and 60 minutes, an aliquot of 30 μL reaction mixtures was removed and mixed with 300 μL acetonitrile containing 5 ng/mL terfenadine and 10 ng/mL tolbutamide as internal standards to quench the reaction. The resulting mixture was centrifuged at 4000 rpm, 4° C. for 15 minutes, and 100 μL supernatant was ready for LC-MS/MS analysis to measure the formation of acid metabolite.
# Acquity Ultra Performance LC system from Waters was used for sample analysis. The chromatography was performed on a reverse phase Kinetex 2.6 μm C18 column, 2.1×30 mm, 100 Å. The mobile phase A comprised of 0.1% formic acid in water and mobile phase B comprised of 0.1% formic acid in acetonitrile with a 2-min run time at the flow rate of 0.8 mL/min for the acid metabolite from positive control or a 1.5 min run time at the flow rate of 0.9 mL/min for the acid metabolite of test compounds. The mass spectrometer (API-5500 and API Q Trap 4000 Applied Biosystems/MDS SCIEX Instruments, Framingham, MA, USA) was operated under ESI positive or negative ion MRM mode.
# The formation of acid metabolite was monitored and quantified using one calibration point of 1 μM. The observed rate constant (ke) for the acid metabolite formation was calculated by plotting the metabolite concentration versus time of incubation with the slope being ke and is shown in Table 2.
row,SMILES,ke (observed rate constant for the acid metabolite formation)
1,"Cc1c(C=CC(=O)Nc2cccnn2)ccc(OCc2cc(Cl)cc3c2OC(C)(C)C3)c1C [Compound 2, 3-(4-((5-chloro-2,2-dimethyl-2,3-dihydrobenzofuran-7-yl)methoxy)-2,3-dimethylphenyl)-N-(pyridazin-3-yl)propenamide]",B (ke is less than 1.0 and more than or equal to 0.1)
2,"Cc1c(CCC(=O)NC2CC2)ccc(OCc2cc(Cl)cc3c2OC(C)(C)C3)c1C [Compound 3, 3-(4-((5-chloro-2,2-dimethyl-2,3-dihydrobenzofuran-7-yl)methoxy)-2,3-dimethylphenyl)-N-cyclopropylpropanamide]",B (ke is less than 1.0 and more than or equal to 0.1)
3,"Cc1c(C=CC(=O)N[C@@H]2C[C@H]2F)ccc(OCc2cc(Cl)cc3c2OC(C)(C)C3)c1C [Compound 4, 3-(4-((5-chloro-2,2-dimethyl-2,3-dihydrobenzofuran-7-yl)methoxy)-2,3-dimethylphenyl)-N-((1R,2R)-2-fluorocyclopropyl)propenamide]",B (ke is less than 1.0 and more than or equal to 0.1)
4,"Cc1c(C=CC(=O)N[C@@H]2C[C@@H]2F)ccc(OCc2cc(Cl)cc3c2OC(C)(C)C3)c1C [Compound 5, 3-(4-((5-chloro-2,2-dimethyl-2,3-dihydrobenzofuran-7-yl)methoxy)-2,3-dimethylphenyl)-N-((1R,2S)-2-fluorocyclopropyl)propenamide]",B (ke is less than 1.0 and more than or equal to 0.1)
5,"Cc1c(C=CC(=O)NCCCF)ccc(OCc2cc(Cl)cc3c2OC(C)(C)C3)c1C [Compound 6, 3-(4-((5-chloro-2,2-dimethyl-2,3-dihydrobenzofuran-7-yl)methoxy)-2,3-dimethylphenyl)-N-(3-fluoropropyl)propenamide]",B (ke is less than 1.0 and more than or equal to 0.1)
6,"Cc1c(C=CC(=O)Nc2ccncc2)ccc(OCc2cc(Cl)cc3c2OC(C)(C)C3)c1C [Compound 7, 3-(4-((5-chloro-2,2-dimethyl-2,3-dihydrobenzofuran-7-yl)methoxy)-2,3-dimethylphenyl)-N-(pyridin-4-yl)propenamide]",A (ke is more than or equal to 1.0)
7,"Cc1c(C=CC(N)=O)ccc(OCc2cc(Cl)cc3c2OC(C)(C)C3)c1C [Compound 9, 3-(4-((5-chloro-2,2-dimethyl-2,3-dihydrobenzofuran-7-yl)methoxy)-2,3-dimethylphenyl)propenamide]",A (ke is more than or equal to 1.0)
8,"CNC(=O)CCc1ccc(OCc2cc(Cl)cc3c2OC(C)(C)C3)c(C)c1C [Compound 10, 3-(4-((5-chloro-2,2-dimethyl-2,3-dihydrobenzofuran-7-yl)methoxy)-2,3-dimethylphenyl)-N-methylpropanamide]",A (ke is more than or equal to 1.0)
9,"Cc1c(C=CC(=O)NCCO)ccc(OCc2cc(Cl)cc3c2OC(C)(C)C3)c1C [Compound 11, 3-(4-((5-chloro-2,2-dimethyl-2,3-dihydrobenzofuran-7-yl)methoxy)-2,3-dimethylphenyl)-N-(2-hydroxyethyl)propenamide]",A (ke is more than or equal to 1.0)
10,CCCCC[C@H](O)CC[C@@H]1[C@H]2Cc3cccc(OCC(=O)NC4CC4)c3C[C@H]2C[C@H]1O [Compound 12],C (ke is less than 0.1 and more than 0)
11,CCCCC[C@H](O)CC[C@@H]1[C@H]2Cc3cccc(OCC(N)=O)c3C[C@H]2C[C@H]1O [Compound 14],B (ke is less than 1.0 and more than or equal to 0.1)
12,CCc1cc(/C(C)=N/OCc2ccc(C3CCCCC3)c(C(F)(F)F)c2)ccc1CN1CC(C(=O)NC)C1 [Compound 18],B (ke is less than 1.0 and more than or equal to 0.1)
13,CNC(=O)CCSCc1ccc(-c2onc(C)c2NC(=O)O[C@H](C)c2ccccc2Cl)cc1 [Compound 23],B (ke is less than 1.0 and more than or equal to 0.1)
14,Cc1noc(-c2ccc(CSCCC(N)=O)cc2)c1NC(=O)O[C@H](C)c1ccccc1Cl [Compound 24],B (ke is less than 1.0 and more than or equal to 0.1)
15,COc1ccc(NC(=O)c2ccc(F)c(OCCCc3c(C)n[nH]c3C)c2)cn1 [Compound 29],B (ke is less than 1.0 and more than or equal to 0.1)
16,Cc1noc(-c2ccc(NC(=O)CCC(=O)NCCCF)cc2F)c1NC(=O)O[C@H](C)c1ccccc1Cl [Compound 30],B (ke is less than 1.0 and more than or equal to 0.1)
17,Cc1c(CCC(=O)Nc2ccncc2)ccc(OCc2cc(Cl)cc3c2OC(C)(C)C3)c1C [Compound 35],B (ke is less than 1.0 and more than or equal to 0.1)

# More lines, now with the values ahead:
row,ke (observed rate constant for the acid metabolite formation),SMILES
1,D (ke is 0),CCCCC[C@H](O)CC[C@@H]1[C@H]2Cc3cccc(OCC(=O)NC)c3C[C@H]2C[C@H]1O [Compound 13]
2,D (ke is 0),O=C(NC1CC1)c1ccc2nc(-c3cc(Cl)cc(Cl)c3)oc2c1 [Compound 15]
3,D (ke is 0),CNC(=O)c1ccc2nc(-c3cc(Cl)cc(Cl)c3)oc2c1 [Compound 16]
4,A (ke is more than or equal to 1.0),CCc1cc(/C(C)=N/OCc2ccc(C3CCCCC3)c(C(F)(F)F)c2)ccc1CN1CC(C(=O)NCCO)C1 [Compound 17]
5,D (ke is 0),CCc1cc(/C(C)=N/OCc2ccc(C3CCCCC3)c(C(F)(F)F)c2)ccc1CN1CC(C(N)=O)C1 [Compound 19]
6,D (ke is 0),CNC(=O)C[C@H]1CCc2c1[nH]c1ccc(OCc3ccc(C4CCCC4)c(C(F)(F)F)c3)cc21 [Compound 21]
7,D (ke is 0),CCc1cc(/C(C)=N/OCc2ccc(C3CCCCC3)c(C(F)(F)F)c2)ccc1CN1CC(C(=O)NC2CC2F)C1 (centres unmarked) [Compound 28]
8,D (ke is 0),Cc1noc(-c2ccc(NC(=O)CCC(=O)NC3CC3)cc2F)c1NC(=O)O[C@H](C)c1ccccc1Cl [Compound 31]
9,C (ke is less than 0.1 and more than 0),O=C(C[C@H]1CCc2c1[nH]c1ccc(OCc3ccc(C4CCCC4)c(C(F)(F)F)c3)cc21)NC1CC1F (some centres unmarked) [Compound 32]
10,D (ke is 0),Cc1noc(-c2ccc(CSCCC(=O)NC3CC3)cc2)c1NC(=O)OC(C)c1ccccc1Cl (centres unmarked) [Compound 33]
11,D (ke is 0),Cc1noc(NC(=O)CCSCc2ccc(-c3onc(C)c3NC(=O)OC(C)c3ccccc3Cl)cc2)c1C (centres unmarked) [Compound 34]
12,D (ke is 0),Cc1n[nH]c(C)c1CCCOc1cc(C(N)=O)ccc1F [Compound 36]
